The Deep4Chem optical property database
Several values for one entry are separate records, joined by “and”; a condition that tells them apart may be missing. Equal values may be shown once. Blank lines part the entries; values can stand above or below the molecule they belong to.

Test: solvent given as SMILES

absorption maximum (in CC#N): 452 nm | absorption maximum (in CCCCCC): 492 nm | absorption maximum (in CCOC(C)=O): 464 nm | absorption maximum (in CO): 458 nm | absorption maximum (in ClCCl): 468 nm
Structure (SMILES): N#CSc1ccc2n1[B-](F)(F)[N+]1=C(N3CCOCC3)C=CC1=C2c1ccccc1

absorption maximum (in C1CCOC1): 321 nm
Structure (SMILES): c1ccc(-c2cc3ccccc3p2-c2ccccc2)cc1 (stereo unspecified)

Structure (SMILES): Cc1cc(C)c(C)c(B(c2c(C)c(C)cc(C)c2C)c2c(C)c(C)c(N3c4ccccc4Oc4ccccc43)c(C)c2C)c1C
absorption maximum (in CC(C)(C)c1ccc(-n2c3ccc([Si](c4ccccc4)(c4ccccc4)c4ccccc4)cc3c3cc([Si](c4ccccc4)(c4ccccc4)c4ccccc4)ccc32)cc1): 373 nm

absorption maximum (in ClCCl): 383 nm
Structure (SMILES): CCCCc1ccc(C#Cc2ccc3nc4ccc(C#Cc5ccc(CCCC)cc5)cn4c(=O)c3c2)cc1

absorption maximum (in C1CCOC1): 498 nm
Structure (SMILES): FC(F)(F)C(F)(F)C(F)(F)C1=NC2=C(Oc3ccccc3)C=C3c4cc(Oc5ccccc5)c5nc(C(F)(F)C(F)(F)C(F)(F)F)nc6c(Oc7ccccc7)cc(c4c56)=C4C=C(Oc5ccccc5)C(=N1)C2C34 (stereo unspecified)

absorption maximum (in C1CCOC1): 505 nm
Structure (SMILES): CC1=C[C@]2(C)C(=C3C(=C4C(C)=C(c5ccc(-c6nc(-c7ccccc7)c(-c7ccccc7)[nH]6)cc5)S[C@]42C)C(F)(F)C(F)(F)C3(F)F)S1

absorption maximum (in O): 400 nm
Structure (SMILES): Clc1ccc2cc3cccc[n+]3cc2c1

Structure (SMILES): CC(=O)OC[C@H]1O[C@@H]([C@@H]2C=CC(=S)NC2=O)[C@H](OC(C)=O)[C@@H]1OC(C)=O
absorption maximum (in ClC(Cl)(Cl)Cl): 420 nm

absorption maximum (in ClCCl): 387 nm
Structure (SMILES): O=C1c2ccccc2C2=Nc3ccc4ccccc4[n+]3[B-](F)(F)N12

Structure (SMILES): CC[N+]1(CC)CN2C(=N1)C(C(=O)O)=Cc1ccccc12
absorption maximum (in CN(C)C=O): 361 nm | absorption maximum (in O): 373 nm

Structure (SMILES): O=P1(c2ccccc2)c2ccc(N3c4ccccc4Sc4ccccc43)cc2-c2cc(N3c4ccccc4Sc4ccccc43)ccc21
absorption maximum (in Cc1ccccc1): 422 nm

Structure (SMILES): Cc1cc(-n2c3ccccc3c3cc4c(cc32)C2c3ccccc3C4c3ccccc32)c(C)cc1-c1nc(-c2ccccc2)nc(-c2ccccc2)n1
absorption maximum (in Cc1ccccc1): 345 nm

Structure (SMILES): O=C(N/N=C/c1ccccc1O)c1cccc2ccccc12
absorption maximum (in C1CCOC1): 334 nm | absorption maximum (in CC#N): 332 nm | absorption maximum (in CC(C)=O): 343 nm | absorption maximum (in CCO): 400 nm | absorption maximum (in CN(C)C=O): 395 nm | absorption maximum (in CS(C)=O): 329 nm | absorption maximum (in ClCCl): 328 nm

absorption maximum (in O): 370 nm
Structure (SMILES): O=C(NCc1cc(=O)oc2cc([O-])c(Br)cc12)c1cccnc1

absorption maximum (in ClCCl): 436 nm
Structure (SMILES): CC(C)(C)c1ccc(-c2ccc(-c3ccc(N(c4ccccc4)c4ccccc4)cc3)c3nsnc23)cc1

Structure (SMILES): COc1ccc(C2=CC(c3ccccc3)=[N+]3C2=Nc2c(-c4ccc(OC)cc4)cc(-c4ccccc4)n2[B-]3(F)F)cc1
absorption maximum (in Cc1ccccc1): 663 nm | absorption maximum (in ClC(Cl)Cl): 664 nm

Structure (SMILES): O=c1c2ccccc2n2c3ccccc3c(=O)c3cc(-c4ccccc4)cc1c32
absorption maximum (in CC#N): 447 nm | absorption maximum (in CCCCCC): 437 nm | absorption maximum (in CCCCOCCCC): 440 nm | absorption maximum (in CCOC(C)=O): 443 nm | absorption maximum (in CN(C)C=O): 450 nm | absorption maximum (in Cc1ccccc1): 445.76 nm

absorption maximum (in CCO): 678 nm
Structure (SMILES): CCN(C(C)=O)c1cc2c(cc1C)C(c1ccccc1C(=O)O)=C1CCCC(/C=C/C3=[N+](C)c4ccc5ccccc5c4C3(C)C)=C1O2

absorption maximum (in C1CCOC1): 339 nm | absorption maximum (in CC#N): 332 nm | absorption maximum (in CS(C)=O): 335 nm | absorption maximum (in ClC(Cl)Cl): 332 nm
Structure (SMILES): COc1cccc2cc(-c3ccc([N+](=O)[O-])cc3)c(=N)oc12

absorption maximum (in ClCCl): 373 nm
Structure (SMILES): C[Si]1(C)O[Si](C)(C)c2cc3nc4ccc(Cl)cc4c(-c4ccccc4)c3cc2[Si](C)(C)O1

Structure (SMILES): F[B-]1(F)Oc2ccccc2-c2cc(-n3c4ccccc4c4ccccc43)cc[n+]21
absorption maximum (in Cc1ccccc1): 366 nm

absorption maximum (in C1CCCCC1): 455 nm
Structure (SMILES): CC(C)(C)C#Cc1ccc2c3cccc4cccc(c5cccc1c52)c43

absorption maximum (in ClCCl): 372 nm
Structure (SMILES): C(#Cc1cc(C#Cc2cccs2)c(C#Cc2cccs2)c(C#Cc2cccs2)c1C#Cc1cccs1)c1cccs1

absorption maximum (in C1COCCO1): 363 nm
Structure (SMILES): CCC1=C(C2=C(C3=C(CC)S(=O)(=O)c4cc(-c5ccc(C(C)=O)s5)ccc43)C(F)(F)C(F)(F)C2(F)F)c2ccc(-c3ccc(C(C)=O)s3)cc2S1(=O)=O

Structure (SMILES): CC1=[N+]2C(=C(c3c4ccccc4c(-c4ccccc4)c4ccccc34)c3ccc(C)n3[B-]2(F)F)C=C1
absorption maximum (in CC#N): 514 nm | absorption maximum (in CCCCCC): 516 nm | absorption maximum (in CCO): 516 nm | absorption maximum (in CN(C)C=O): 517 nm | absorption maximum (in Cc1ccccc1): 519 nm | absorption maximum (in ClCCl): 518 nm

absorption maximum (in CC#N): 280 nm | absorption maximum (in CCOC(C)=O): 280 nm | absorption maximum (in CO): 280 nm
Structure (SMILES): COC(=O)C[C@H](NC(=O)[C@H](Cc1c[nH]c2ccccc12)NC(=O)OC(C)(C)C)C(=O)OC

absorption maximum (in ClC(Cl)Cl): 495 nm
Structure (SMILES): CCn1c2ccccc2sc2c(C#N)c3[nH]c4ccccc4sc3c(C#N)c21

absorption maximum (in C1CCCCC1): 296 nm
Structure (SMILES): COc1ccc(C2=C(c3ccc(OC)cc3)C(C)(C)c3cc(OC)ccc32)cc1

Structure (SMILES): CC(C)c1cc(C(C)C)c(B2c3ccccc3Oc3cc(N4c5ccccc5C5(c6ccccc6Oc6ccccc65)c5ccccc54)ccc32)c(C(C)C)c1
absorption maximum (in Cc1ccccc1): 429 nm

absorption maximum (in ClCCl): 543 nm
Structure (SMILES): CN(C)c1ccc(C2=CC3=C(c4ccc(C=C(C#N)C#N)cc4)[C@H]4c5ccccc5[C@]3(S2)c2ccccc24)cc1

Structure (SMILES): [NH3+]c1ccc2c(c1)Cc1ccccc1-2
absorption maximum (in O): 299 nm

absorption maximum (in CS(C)=O): 298 nm
Structure (SMILES): O=C1CC(=O)Nc2cc(Cl)ccc2N1

absorption maximum (in C1CCCCC1): 316 nm | absorption maximum (in CC#N): 313 nm | absorption maximum (in CCO): 315 nm
Structure (SMILES): Cc1ccc(/C=C/c2ccccc2-[n+]2noc([O-])c2-c2ccccc2)cc1

Structure (SMILES): CCC1=C(C)C2=Cc3c4ccccc4c4n3[B-](c3ccncc3)(Oc3ccccc3-4)[N+]2=C1C (stereo unspecified)
absorption maximum (in CC#N): 621 nm | absorption maximum (in CCCCCC): 625 nm | absorption maximum (in Cc1ccccc1): 629 nm | absorption maximum (in ClCCl): 627 nm

Structure (SMILES): Cc1cc(C)cc(C)c1
absorption maximum (in C1CCCCC1): 261.57 nm

absorption maximum (in CS(C)=O): 403 nm | absorption maximum (in O): 394 nm
Structure (SMILES): CCCCCn1c2ccccc2c(=O)c2ccccc21

absorption maximum (in ClCCl): 444 nm
Structure (SMILES): COc1ccc(/C=C/C2=CC(c3ccccc3)=[O+][B-](F)(F)O2)cc1

absorption maximum (in CC#N): 290 nm | absorption maximum (in CO): 291 nm | absorption maximum (in O): 290 nm
Structure (SMILES): CCOC(=O)COc1ccc(C(c2c(C)[nH]c3ccccc23)c2c(C)[nH]c3ccccc23)cc1OC

absorption maximum (in ClCCl): 314 nm
Structure (SMILES): COc1cc2c(cc1OC)C1=C[C@H](c3ccc(Cl)cc3)C3(C(C#N)=C(C#N)N1CC2)c1cc(Cl)ccc1-c1ccc(Cl)cc13

absorption maximum (in c1cc(-c2cccc(-n3c4ccccc4c4ccccc43)c2)cc(-n2c3ccccc3c3ccccc32)c1): 405.11 nm
Structure (SMILES): c1ccc(-c2nc(-c3ccccc3)nc(-c3ccc(-c4ccc5c(c4)C4(c6ccccc6-c6ccccc64)c4cc(-c6ccc(-c7nc(-c8ccccc8)nc(-c8ccccc8)n7)cc6)ccc4N5c4ccccc4)cc3)n2)cc1

Structure (SMILES): O=C(c1ccccc1)c1cc2ccc1CCc1ccc(c(-c3ccc(N(c4ccccc4)c4ccccc4)cc3)c1)CC2
absorption maximum (in Cc1ccccc1): 312 nm

absorption maximum (in CCO): 394 nm | absorption maximum (in ClCCl): 396 nm
Structure (SMILES): Clc1ncc(-c2c3ccccc3c(-c3cnc(Cl)nc3)c3ccccc23)cn1

Structure (SMILES): N#Cc1ccc(N)c2nonc12
absorption maximum (in C1COCCO1): 418 nm | absorption maximum (in CC#N): 421 nm | absorption maximum (in CCCCCC): 397 nm | absorption maximum (in CCO): 430 nm | absorption maximum (in Cc1ccccc1): 409 nm | absorption maximum (in ClCCl): 407 nm | absorption maximum (in O): 430 nm

absorption maximum (in CC1CCCO1): 460 nm | absorption maximum (in CC#N): 437 nm
Structure (SMILES): Cn1c(=O)nc2n(C)c3ccccc3nc-2c1=O

absorption maximum (in ClCCl): 368 nm and 381 nm
Structure (SMILES): O=C(c1ccc2c3c(sc2c1)-c1ccccc1P3(=O)c1ccccc1)c1c(F)c(F)c(F)c(F)c1F (stereo unspecified)

absorption maximum (in ClCCl): 402 nm
Structure (SMILES): CCCCCCN1C(=O)c2cccc3c(-c4ccc(-c5cc(-c6ccc(Cl)cc6)n(-c6ccccc6)n5)s4)ccc(c23)C1=O

Structure (SMILES): N#CC(C#N)=C(/C=C/c1ccc(N(c2ccccc2)c2ccccc2)cc1)c1ccc2c3c(cccc13)CC2
absorption maximum (in C1CCOC1): 485 nm | absorption maximum (in CC#N): 486 nm | absorption maximum (in CC(C)=O): 485 nm | absorption maximum (in CCOC(C)=O): 482 nm | absorption maximum (in CN(C)C=O): 493 nm | absorption maximum (in CO): 490 nm | absorption maximum (in Cc1ccccc1): 493 nm | absorption maximum (in ClC(Cl)Cl): 502 nm

Structure (SMILES): CCCCCCCCCCCn1cccc1C1=[N+]2C(=Cc3c(C)cc(C)n3[B-]2(F)F)c2ccccc21
absorption maximum (in C1CCOC1): 584 nm | absorption maximum (in CC#N): 577 nm | absorption maximum (in CCCCCC): 583 nm | absorption maximum (in CO): 579 nm | absorption maximum (in Cc1ccccc1): 590 nm | absorption maximum (in ClCCl): 584 nm

Structure (SMILES): CCC1=C(C)C(=O)n2c1cc1c(C)c(CCC(=O)OC)c(C)n1c2=O
absorption maximum (in CC#N): 420 nm | absorption maximum (in CC(C)=O): 420 nm | absorption maximum (in CO): 424 nm | absorption maximum (in CS(C)=O): 425 nm | absorption maximum (in ClC(Cl)Cl): 427 nm | absorption maximum (in c1ccccc1): 420 nm

absorption maximum (in ClCCl): 514 nm
Structure (SMILES): CCCCCCC1(CCCCCC)c2cc(-c3ccc(-c4ccc(-c5ccc(-c6ccc7c(c6)C(CCCCCC)(CCCCCC)c6cc(-n8c9ccc(-n%10c%11ccccc%11c%11ccccc%11%10)cc9c9cc(-n%10c%11ccccc%11c%11ccccc%11%10)ccc98)ccc6-7)s5)c5nsnc45)s3)ccc2-c2ccc(-n3c4ccc(-n5c6ccccc6c6ccccc65)cc4c4cc(-n5c6ccccc6c6ccccc65)ccc43)cc21

absorption maximum (in ClCCl): 365 nm
Structure (SMILES): NC1=N/C(=N\c2ccccn2)c2cccc3cccc1c23

absorption maximum (in ClCCl): 375 nm
Structure (SMILES): c1ccc(N(c2ccccc2)c2ccc(-c3ccc4c(c3)C3(c5ccccc5Sc5ccccc53)c3cc(-c5ccc(N(c6ccccc6)c6ccccc6)cc5)ccc3-4)cc2)cc1

absorption maximum (in C1CCOC1): 493 nm
Structure (SMILES): Cc1cscc1-c1cc2c3cc(-c4cscc4C)c4nc(C(F)(F)C(F)(F)C(F)(F)F)nc5c(-c6cscc6C)cc(c6cc(-c7cscc7C)c7nc(C(F)(F)C(F)(F)C(F)(F)F)nc1c7c26)c3c45

Structure (SMILES): Cc1ccc(OCc2cc(=O)oc3c2ccc2ccccc23)cc1
absorption maximum (in C1CCOC1): 352 nm | absorption maximum (in C1COCCO1): 352 nm | absorption maximum (in CCOC(C)=O): 351 nm | absorption maximum (in CO): 352 nm | absorption maximum (in Cc1ccccc1): 354 nm | absorption maximum (in ClCCl): 354 nm

absorption maximum (in C1CCCCC1): 346 nm
Structure (SMILES): CCCC1(CCC)c2cc(-c3ccccc3)ccc2-c2ccc(-c3ccc4c(c3)C(CCC)(CCC)c3cc(-c5ccccc5)ccc3-4)cc21

absorption maximum (in ClC(Cl)Cl): 426 nm
Structure (SMILES): F[B-]1(F)OC(c2cccc(Br)c2)=Cc2ccc3ccccc3[n+]21
